Measurements reported in patent publication US20220168331A1, “PRR-Activating and MicroRNA-Inhibiting Molecules and Methods of Using Same” (Duke University, priority 2019, published 2022).
“Also recorded” adds a separate entry of the source. {PPP} = triphosphate

Assays:
[1] = test system: B16-F10 mouse melanoma cells; test: IFN-β production (ELISA) by B16-F10 cells; format: cell-based; conditions: for IFN-β production compared to ICR2 and ICR2AS conjugated with seed mutant anti-miR-21: FIG. 6B, n=3
Procedure: (§1) B16-F0 and B16-F10 mouse melanoma cells lines are originated from the same parental cell line but they have different metastatic ability. B16-F0 cell line has no or marginal metastatic ability but B16-F10 cell line has potent metastatic ability. B16-F0 and B16-F10 cells (1×10^4) were treated with RIG-I agonist ICR4-liposome complex (0.6 μg/ml). After overnight incubation, cytotoxicity and IFN-β production by the cells were measured using MTT assay and ELISA, respectively. […] Tumor suppressor proteins, such as programmed cell death 4 (PDCD4) and phosphatase and tensin homolog (PTEN), and pre-miR-21 levels in B16-F0 and B16-F10 cells were measured using real-time qPCR. […] It was hypothisized that miR-21 would interfere with antitumor effects of RIG-I agonists in B16-F10 melanoma cells.
To improve therapeutic effects of RIG-I agonists in B16-F10 cells, we designed and generated a novel RIG-I-activating RNA molecule (named RigantmiR-21) that is composed of a RIG-I-activating RNA structure (ICR4: 5′ppp-containg double stem-loop RNA) and a complementary sequence to mature miR-21. B16-F10 melanoma cells were transfected once or twice with RigantmiR-21, mutant RigantmiR-21, anti-miR-21, or ICR4 (0.6 μg/ml) using liposomal transfection agent DharmaFECT (DF). The expression of miR-21 target genes was determined using qPCR. IFN-β production was determined using ELISA. […] Anti-miR-21, ICR4, and RigantmiR-21 RNAs were complexed with in vivo transfection agent jet-PEI. Jet-PEI alone or RNA-jet-PEI complexes (25 μg) were injected thrice intratumorally into B16-F10 melanoma-bearing immunocompetent mice. (n=6).
Additionally, conjugation of anti-miR-21 improved the ability of other types of RIG-I agonists, such as ICR2 and ICR2AS^4 (sequences shown in FIG. 6A) to induce IFN-β production by cancer cells.

[2] = test system: B16-F0 mouse melanoma cells; test: Cytotoxicity (MTT assay) in B16-F0 cells; format: cell-based; conditions: for cytotoxic effects after repeated treatments: two transfections at various concentrations, DharmaFECT, MTT three days after first transfection
Procedure: as §1
B16-F0 mouse melanoma cells were transfected with ICR4, RigantmiR-21, mutant RigantmiR-21, or anti-miR-21 at various concentrations using DharmaFECT (DF). After overnight incubation, the cells were replenished with fresh culture media, followed by another transfection with the same dose of RNAs. Three days after the first transfection, cytotoxicity levels were measured using MTT assay.

[3] = test system: B16-F10 mouse melanoma cells; test: Cytotoxicity (MTT assay) in B16-F10 cells; format: cell-based; conditions: ICR4-liposome complex 0.6 μg/ml, overnight incubation
Procedure: as §1

[4] = test system: B16-F0 mouse melanoma cells; test: IFN-β production (ELISA) by B16-F0 cells; format: cell-based; conditions: for IFN-β production after first and second transfection: 12.5 nM, DharmaFECT, one day after first and second transfection
Procedure: as §1
B16-F0 mouse melanoma cells were transfected with ICR4, RigantmiR-21, mutant RigantmiR-21, or anti-miR-21 at 12.5 nM using DharmaFECT (DF). After overnight incubation, the cells were replenished with fresh culture media, followed by another transfection with the same dose of RNAs. One day after the first and second transfection, IFN-β production by these cells were determined using ELSIA.
(§2) B16-F0 mouse melanoma cells or bone marrow-derived dendritic cells (BM-DCs) were transfected once (x1) or twice (x2) with a complex of polyI:C (pIC) (0.6 μg/ml) and transfection agent jet-PEI. IFN-β production by the cells one day after each transfection was determined using ELISA.

[5] = test system: Human and murine cancer cell lines and human normal cells; test: Cytotoxicity (MTT assay) in cancer cell lines and normal cells; format: cell-based; conditions: transfected 0.8 mg/ml, 72 h after treatment, FIG. 2
Procedure: Human and murine cancer cell lines and human normal cells in 96-well plate (7000 cells/well) were transfected with RIG-I agonist 5′ppp ssRNA ICR4 ([…]). Cells were harvested 72 h after treatment and analyzed for cytotoxicity using MTT assay. N=3. *, P<0.05.

[6] = test system: mouse pancreatic, adenocarcinoma, and sarcoma cells; test: Antitumor activities in mouse pancreatic cancer and sarcoma cells (overall statements); format: cell-based; conditions: FIGS. 4A-4C
Procedure: The antitumor effects of RigantmiR-21 are not limited to melanoma cells. KPC-4839 (mouse pancreatic ductal adenocarcinoma), PANC-02 (mouse pancreatic adenocarcinoma) and mouse sarcoma cell line cells were transfected with indicated ICR4, RigantmiR-21, mutant RigantmiR-21, or anti-miR-21 (0.6 μg/ml) using DharmaFECT (DF). After overnight incubation, IFN-β production by these cells was determined using ELSIA. (n=3). As shown in FIGS. 4A-4C, RigantmiR-21 treatments induced cell death and IFN-β production by mouse pancreatic, adenocarcinoma, and sarcoma cells that are also resistant to RIG-I agonist ICR4.

Mouse BM-DCs = test: PRR tolerance: IFN-β production by pretreated BM-DCs after secondary treatment; format: cell-based; conditions: pretreatment overnight, then cytoplasmic PRR agonists; FIG. 9A
Procedure: (§3) In addition to prior activation of MDA5, prior activation of TLR4, RIG-I, and STING induced self- and cross-tolerance of same and different PRRs.
(§4) Mouse BM-DCs were treated with pIC/DF complex (cytoplasmic MDA5), ICR4/DF complex (cytoplasmic RIG-I), 2′3′-cGAMP (cytoplasmic STING), or transfection agent DF alone (FIG. 9A). Mouse macrophage cells were treated with dH2O (control), LPS (surface TLR4), or HMGB1 (surface TLR4), followed by treatment with DMSO (control) or mixture of CH223191 (AHR inhibitor) and 1-MT (IDO inhibitor) (FIG. 9B). After overnight incubation, the cells were replenished with fresh culture media and treated with indicated cytoplasmic PRR agonists. Levels of IFN-β production were measured using ELISA. □ P<0.05.

[7] = test system: PANC-02 mouse pancreatic cancer cell line; test: PRR tolerance: IFN-β production by pretreated PANC-02 cells after secondary treatment; format: cell-based; conditions: FIG. 8; for IFN-β production, cells pre-treated with mixture of 1-MT and CH223191 versus DMSO: substance given as mixture of IDO inhibitor and AHR inhibitor; for IFN-β production after secondary treatment, cells pretreated with the substance versus control: pretreatment at sublethal dose overnight, then pIC/DF complex 0.6 μg/ml
Procedure: as §3
(§5) In particular, mouse pancreatic cancer cell line PANC-02 and melanoma cell line B16-F10 were pretreated with dH2O, MDA5 agonist (pIC/DF complex), or TLR4 agonist (HMGB1) in the presence of dimethyl sulfoxide (DMSO) (vehicle control), CH223191 (AHR inhibitor), 1-MT (IDO inhibitor), or L-Kyn (AHR activator). After overnight incubation, the cells were replenished with fresh culture media and treated with pIC/DF complex (0.6 μg/ml). One day after second treatment, IFN-β production was measured using ELISA. (n=3).

[8] = test system: B16-F10 melanoma cell line; test: PRR tolerance: IFN-β production by pretreated B16-F10 cells after secondary treatment; format: cell-based, mouse; conditions: FIG. 8; for IFN-β production, cells pre-treated with mixture of 1-MT and CH223191 versus DMSO: substance given as mixture of IDO inhibitor and AHR inhibitor; for IFN-β production after secondary treatment, cells pretreated with the substance versus control: pretreatment at sublethal dose overnight, then pIC/DF complex 0.6 μg/ml
Procedure: as §3, §5

Mouse macrophage cells = test: PRR tolerance: IFN-β production by pretreated macrophages after secondary treatment; format: cell-based; conditions: for IFN-β production, cells pre-treated with mixture of 1-MT and CH223191 versus DMSO: substance given as mixture of IDO inhibitor and AHR inhibitor, FIG. 9; for IFN-β production after secondary treatment, cells pretreated with the substance versus control: pretreatment overnight, then cytoplasmic PRR agonists, FIG. 9B
Procedure: as §3, §4

[9] = test system: bone marrow-derived dendritic cells (BM-DCs); test: IFN-β production (ELISA) by BM-DCs after single or repeated pIC/jet-PEI transfection; format: cell-based, mouse; conditions: pIC 0.6 μg/ml with jet-PEI, transfected once or twice, one day after each transfection
Procedure: as §2

[10] = test system: B16-F10 melanoma-bearing mice; test: Anticancer response (survival) after single or multiple intratumoral pIC/jet-PEI injections; format: in vivo, mouse; conditions: pIC/jet-PEI complex 25 μg intratumorally once or thrice
[11] = test system: 4T1 mouse breast cancer cells, B16-F10 mouse melanoma cells, 403688 mouse sarcoma cells, and WM266.4 human melanoma cells; test: IFN-β production (ELISA) by different cancer cells after first and second transfection with RIG-I agonists; format: cell-based; conditions: DharmaFECT, one day after first and second transfection; FIG. 11
Procedure: 4T1 mouse breast cancer cells, B16-F10 mouse melanoma cells, 403688 mouse sarcoma cells, and WM266.4 human melanoma cells were transfected with indicated RIG-I agonists using liposomal transfection agent DharmaFECT (DF). After overnight incubation, the cells was replenished with fresh culture media, followed by another transfection with the same RIG-I agonists. One day after first and second transfection IFN-β production by these cells were determined using ELSIA.

[12] = ICR4-liposome complex 0.6 μg/ml, overnight incubation, ELISA

ICR2-anti-miR-21: RIG-I agonist ICR2 conjugated with anti-miR-21; SEQ ID NO: 7 (GGAUGCGGUACCUGACAGCAUCCUCAACAUCAGUCUGAUAAGCUA; listed as RNA, further chemistry not given here)
IFN-β production compared to ICR2 and ICR2AS conjugated with seed mutant anti-miR-21 [1]: increased induction

ICR4: immunogenic cell-killing RNA RIG-I agonist, 5′ppp-containing double stem-loop ssRNA; SEQ ID NO: 1 (GGAUGCGGUACCUGACAGCAUCCUAAACUCAUGGUCCAUGUUUGUCCAUGGACCA; RNA, 5' {PPP}, backbone not given here; double stem-loop single-stranded RNA) [reference compound]
sensitivity to antitumor effects, B16-F0 cell line compared with B16-F10 cell line ([2]; 0.6 μg/ml, overnight, FIGS. 1A and 1B): much more sensitive | cytotoxicity (cell death) ([2]; ICR4-liposome complex 0.6 μg/ml, overnight incubation, MTT assay): underwent cell death and IFN-β production | cytotoxic effects after repeated treatments [2]: gradually augmented | cytotoxicity (cell death) [3]: underwent cell death and IFN-β production | IFN-β production after first and second transfection ([4]; ELISA): significantly reduced and not | IFN-β production [4, 12]: underwent cell death and IFN-β production | IFN-β production [1, 12]: underwent cell death and IFN-β production | % cytotoxicity, cancer versus normal cells [5]: differentially sensitive; also recorded: Differential sensitivity | response of the cells to the RIG-I agonist (resistance) [6]: resistant | IFN-β production after secondary treatment, cells pretreated with the substance versus control (Mouse BM-DCs): significantly decreased

Cn1cc(C[C@H](N)C(=O)O)c2ccccc21 [1-MT, 1-methyl tryptophan]
IFN-β production, cells pre-treated with mixture of 1-MT and CH223191 versus DMSO [7]: significantly increased | IFN-β production, cells pre-treated with mixture of 1-MT and CH223191 versus DMSO [8]: significantly increased | IFN-β production, cells pre-treated with mixture of 1-MT and CH223191 versus DMSO (Mouse macrophage cells): significantly increased

Cc1ccccc1N=Nc1ccc(NC(=O)c2ccnn2C)c(C)c1 [CH223191]
IFN-β production, cells pre-treated with mixture of 1-MT and CH223191 versus DMSO [7]: significantly increased | IFN-β production, cells pre-treated with mixture of 1-MT and CH223191 versus DMSO [8]: significantly increased | IFN-β production, cells pre-treated with mixture of 1-MT and CH223191 versus DMSO (Mouse macrophage cells): significantly increased

lipopolysaccharide [LPS]
IFN-β production after secondary treatment, cells pretreated with the substance versus control (Mouse macrophage cells): significantly decreased

Nc1ccccc1C(=O)CC(N)C(=O)O (stereo not shown) [Kyn, kynurenine]
IFN-β production after secondary treatment, cells pretreated with the substance versus control [7]: significantly decreased | IFN-β production after secondary treatment, cells pretreated with the substance versus control [8]: significantly decreased

polyinosinic-polycytidylic acid [polyI:C]
IFN-β production after retreatment ([4]; pIC 0.6 μg/ml with jet-PEI, transfected once or twice, one day after each transfection): reduced | IFN-β production after retreatment [9]: reduced | anticancer responses (survival), multiple treatments compared to single treatment [10]: did not significantly enhance | IFN-β production after secondary treatment, cells pretreated with the substance versus control [7]: significantly decreased | IFN-β production after secondary treatment, cells pretreated with the substance versus control [8]: significantly decreased | IFN-β production after secondary treatment, cells pretreated with the substance versus control (Mouse BM-DCs): significantly decreased

ICR2AS-anti-miR-21: RIG-I agonist ICR2AS conjugated with anti-miR-21; SEQ ID NO: 9 (GGAUGCUGUCAGGUACCGCAUCCUCAACAUCAGUCUGAUAAGCUA; listed as RNA, further chemistry not given here)
IFN-β production compared to ICR2 and ICR2AS conjugated with seed mutant anti-miR-21 [1]: increased induction

Nc1nc2c(ncn2[C@@H]2O[C@@H]3COP(=O)(O)O[C@H]4[C@@H](O)[C@H](n5cnc6c(N)ncnc65)O[C@@H]4COP(=O)(O)O[C@@H]2[C@@H]3O)c(=O)[nH]1 [2′3′-cGAMP]
IFN-β production after secondary treatment, cells pretreated with the substance versus control (Mouse BM-DCs): significantly decreased

B1: high mobility group box 1 (protein, UniProt P09429 1-215, looked up)
High mobility group protein B1: MGKGDPKKPRGKMSSYAFFVQTCREEHKKKHPDASVNFSEFSKKCSERWKTMSAKEKGKFEDMAKADKARYEREMKTYIPPKGETKKKFKDPNAPKRPPSAFFLFCSEYRPKIKGEHPGLSIGDVAKKLGEMWNNTAADDKQPYEKKAAKLKEKYEKDIAAYRAKGKPDAAKKGVVKAEKSKKKKEEEEDEEDEEDEEEEEDEEDEDEEEDDDDE
notes: TLR4 agonist protein
IFN-β production after secondary treatment, cells pretreated with the substance versus control [7]: significantly decreased | IFN-β production after secondary treatment, cells pretreated with the substance versus control [8]: significantly decreased | IFN-β production after secondary treatment, cells pretreated with the substance versus control (Mouse macrophage cells): significantly decreased

B2: mutant RigantmiR-21: composed of ICR4 and a non-complementary sequence to miR-21; SEQ ID NO: 3 (nucleic acid)
chain: GGAUGCGGUACCUGACAGCAUCUUGAAAUAAGGACUGAUGCUCAACAUCAGUCUGACACUCCA
modifications: chemistry not fully specified
cytotoxic effects after repeated treatments [2]: gradually augmented | IFN-β production after first and second transfection ([4]; ELISA): significantly reduced

B3: RigantmiR-146a: nucleic acid molecule comprising a RIG-I agonist sequence and a miR-146a antagonist sequence; SEQ ID NO: 4 (nucleic acid)
chain: GGAUGCGGUACCUGACAGCAUCCUCCCCCGCAUUCCAUGGUCAACCCAUGGAAUUCAGUUCUCA
modifications: listed as RNA, chemistry not given here
IFN-β production by different cancer cells [11]: differentially induce
